{"source": "patent US20240148745A1", "about": "“COMPOUNDS FOR USE IN PROGRESSIVE MULTIPLE SCLEROSIS” (FONDAZIONE CENTRO SAN RAFFAELE, priority 2021, published 2024)", "key": {"[1]": {"test_system": "rat oligodendrocyte progenitor CG4 line", "assay": "Differentiation assay on rat oligodendrocyte progenitor CG4 line (HCS, mCherry+)", "assay_type": "cell-based", "conditions": "secondary screen of 49 selected compounds, 1 μM, 5 days", "in_short": "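Double-reporter CG4 cells (mCherry in mature oligodendrocytes, EGFP in all lineage stages) proliferated 24 h, then given compounds at 1 μM for 5 days of differentiation, ⅔ medium changed at day 3. 9cis-RA as positive control, basal medium and 0.1% DMSO as negative; triplicates imaged by HCS, 35 fields/well.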"}, "[2]": {"test_system": "human iPS-derived neuroprecursors", "assay": "Differentiation of human iPS-derived neuroprecursors into MBP+ oligodendrocytes", "assay_type": "cell-based", "conditions": "1 μM in minimal medium, p<0.05", "in_short": "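Human iPS-derived NPCs with doxycycline-inducible SOX10/OLIG2/NKX6.2 were differentiated, replated on day 7, then treated in minimal medium with compound at 1 μM (DMSO vehicle negative control, 60 ng/mL T3 positive control) until fixation on day 21. MBP+ cells were counted manually by immunocytochemistry against DAPI-counted nuclei.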"}}, "data": [{"smiles": "CCOC(=O)[C@@H](N)CCC(=O)N[C@@H](CSCc1ccccc1)C(=O)N[C@@H](C(=O)OCC)c1ccccc1.Cl", "note": "[Ezatiostat hydrochloride, Ezatiostat Hydrochloride]", "values": [{"measurement": "CG4 differentiation compared with 9cis-RA positive control", "setting": "[1]", "result": "promoting differentiation significantly higher than 9cis-RA positive control"}, {"measurement": "differentiation into MBP+ oligodendrocytes", "setting": "[2]; Hydrochloride", "result": "promote significantly (p<0.05) the differentiation into MBP+ oligodendrocytes"}]}, {"smiles": "O=C(NOC[C@H](O)CO)c1ccc(F)c(F)c1Nc1ccc(I)cc1F", "note": "[PD-0325901]", "values": [{"measurement": "CG4 differentiation compared with 9cis-RA positive control", "setting": "[1]", "result": "promoting differentiation significantly higher than 9cis-RA positive control"}, {"measurement": "differentiation into MBP+ oligodendrocytes", "setting": "[2]", "result": "promote significantly (p<0.05) the differentiation into MBP+ oligodendrocytes"}]}, {"smiles": "NCCCC[C@H](NC(=O)[C@@H](Cc1cc(Br)c(O)c(Br)c1)NC(=O)N1CCC(N2Cc3ccccc3NC2=O)CC1)C(=O)N1CCN(c2ccncc2)CC1", "note": "[Olcegepant]", "values": [{"measurement": "CG4 differentiation compared with 9cis-RA positive control", "setting": "[1]", "result": "promoting differentiation significantly higher than 9cis-RA positive control"}, {"measurement": "differentiation into MBP+ oligodendrocytes", "setting": "[2]", "result": "promote significantly (p<0.05) the differentiation into MBP+ oligodendrocytes"}]}, {"smiles": "CC1(C)CCC(C)(C)c2cc(NC(=O)c3ccc(C(=O)O)cc3)ccc21", "note": "[Tamibarotene]", "values": [{"measurement": "CG4 differentiation compared with 9cis-RA positive control", "setting": "[1]", "result": "promoting differentiation significantly higher than 9cis-RA positive control"}]}, {"smiles": "O=C(c1ccc(CN2CCOCC2)cc1)N1CCN(C2CC2)CC1", "note": "[Bavisant]", "values": [{"measurement": "CG4 differentiation compared with 9cis-RA positive control", "setting": "[1]", "result": "promoting differentiation significantly higher than 9cis-RA positive control"}, {"measurement": "differentiation into MBP+ oligodendrocytes", "setting": "[2]", "result": "promote significantly (p<0.05) the differentiation into MBP+ oligodendrocytes"}]}, {"smiles": "C[C@H](Nc1cc(-c2cnn(C)c2)cc(Nc2cnccn2)n1)c1ccc(F)cc1", "note": "[NS-018]", "values": [{"measurement": "CG4 differentiation compared with 9cis-RA positive control", "setting": "[1]", "result": "promoting differentiation significantly higher than 9cis-RA positive control"}, {"measurement": "differentiation into MBP+ oligodendrocytes", "setting": "[2]", "result": "promote significantly (p<0.05) the differentiation into MBP+ oligodendrocytes"}]}, {"smiles": "CC(=O)[C@H]1CC[C@H]2[C@@H]3CCC4=CC(=O)CC[C@]4(C)[C@H]3CC[C@]12C", "note": "[Progesterone]", "values": [{"measurement": "CG4 differentiation compared with 9cis-RA positive control", "setting": "[1]", "result": "promoting differentiation significantly higher than 9cis-RA positive control"}, {"measurement": "differentiation into MBP+ oligodendrocytes", "setting": "[2]", "result": "promote significantly (p<0.05) the differentiation into MBP+ oligodendrocytes"}]}, {"smiles": "CC(=O)N1CCN([C@H]2CCN(C(=O)N(C)[C@H](C)c3cc(C(F)(F)F)cc(C(F)(F)F)c3)[C@@H](c3ccc(F)cc3C)C2)CC1", "note": "[Casopitant]", "values": [{"measurement": "CG4 differentiation compared with 9cis-RA positive control", "setting": "[1]", "result": "promoting differentiation significantly higher than 9cis-RA positive control"}, {"measurement": "differentiation into MBP+ oligodendrocytes", "setting": "[2]", "result": "promote significantly (p<0.05) the differentiation into MBP+ oligodendrocytes"}]}]}
